Cytotoxicity data for 99 molecules are collected here from ChEMBL document CHEMBL3507680, “University of Dundee, Gates Library screen for HepG2 cell viability”.

This data set can be described thus: Human HepG2 cell viability assay in 384 well format. More on the design: dose 125 nL, time 70.5 hour; cytotoxicity at 70.5 h: concentration not given beside the values. Particulars: HepG2 cells, read-out: Inhibition. In kind it is toxicity, cell-based.
For `O=C(NS(=O)(=O)c1ccccc1)c1ccccc1F`, the cytotoxicity at 70.5 h is -4.29%.

Consider `COCCN(CC1CCCN(C2Cc3ccccc3C2)C1)C(=O)CSC` (centres undefined), for which the cytotoxicity at 70.5 h is -2.79%.

Consider `CC(O)CNCc1ccccc1C(F)(F)F` (centres undefined), for which the cytotoxicity at 70.5 h is -5.36%.

For the molecule `CC(C)(C)C1CCC(NCCN2CCOCC2)CC1` (centres undefined), the cytotoxicity at 70.5 h was -5.37%.

On to `O=C(C1CCC1)N1CCN(Cc2cccnc2)[C@H]2CS(=O)(=O)C[C@H]21`, for which the cytotoxicity at 70.5 h was -2.54%.

As for `CC(Cc1cn(CCc2nc(N)cc(O)n2)nn1)c1ccccc1` (centres undefined), the cytotoxicity at 70.5 h was -11.4%.

For the molecule `CN(C)C1CCN(Cc2cnc(S(C)(=O)=O)n2CC2CCCCC2)C1` (centres undefined), the cytotoxicity at 70.5 h is -7.41%.

On to `CCN1CCCC(C)(C(=O)NCCc2n[nH]c(=O)[nH]2)C1` (centres undefined), for which the cytotoxicity at 70.5 h was -3.84%.

Regarding `Cc1ccc(C)c2c(O)cc(CNCCNC(=O)C(C)C)nc12`, the cytotoxicity at 70.5 h is -6.05%.

With `Cc1cccnc1CN1CCOC(Cc2cccc3ccccc23)C1` (centres undefined), the cytotoxicity at 70.5 h is -6.62%.

For the molecule `CCOCC1(CNCc2cc(O)c3cc(C)ccc3n2)CC1`, the cytotoxicity at 70.5 h is -1.7%.

As for `Cn1c(CCC(=O)N2CCCC3(CNC(=O)O3)C2)nc2cccnc21` (centres undefined), the cytotoxicity at 70.5 h was -14.8%.

Turning to `COc1ccc(Oc2ncccc2C(F)(F)F)cc1CN1CCCC1`, the cytotoxicity at 70.5 h worked out at 14%.

For the molecule `COCCN1CCC(CN(CC2CCCO2)C(=O)CCC(F)(F)F)CC1` (centres undefined), the cytotoxicity at 70.5 h was -2.11%.

As to `CC(C)c1cc(C(=O)N2CCN(c3cccc(C(=O)O)c3)CC2)n(C)n1`, the cytotoxicity at 70.5 h is -13.2%.

Take `CCc1cc(CN(C)C(=O)c2cc(=O)[nH]c(=O)[nH]2)on1`: the cytotoxicity at 70.5 h is -9.27%.

As to `O=C1NCCCC12CCN(Cc1ccc(-c3ccccc3)s1)C2` (centres undefined), the cytotoxicity at 70.5 h came to 7.11%.

Take `CCc1ccc(-c2cn(CCSc3ncn[nH]3)nn2)nc1`: the cytotoxicity at 70.5 h is -1.59%.

As for `CCC(=O)Nc1cccc(OCC(=O)N(C)Cc2ccon2)c1`, the cytotoxicity at 70.5 h amounted to 8.51%.

On to `CC(C)N(CCNc1nc(C2CCCC2)nc2c1cnn2C)C(C)C`, for which the cytotoxicity at 70.5 h was -1.41%.

For the molecule `COc1cccc(CC2(CO)CCCN(c3nccs3)C2)c1` (centres undefined), the cytotoxicity at 70.5 h is -1.79%.

As for `Cc1nc2ccc(-n3ncnc3[C@@H]3CCCN3S(C)(=O)=O)cc2s1`, the cytotoxicity at 70.5 h worked out at 12.3%.

As to `Cc1cnc(C(=O)N2CCc3c(nc(-c4ccncc4)[nH]c3=O)C2)cn1`, the cytotoxicity at 70.5 h is -3.01%.

Turning to `CN(Cc1ccccc1)c1cnn(CC2CCCCO2)c(=O)c1` (centres undefined), the cytotoxicity at 70.5 h was -4.54%.

Regarding `CCc1cnc(C)nc1N(C)CCCc1cnn(C)c1`, the cytotoxicity at 70.5 h is -12.1%.

Take `Cc1nc(CN2CCC(NS(C)(=O)=O)CC2)co1`: the cytotoxicity at 70.5 h is -9.09%.

For `NCC1Cc2cc(F)cc(-c3cnccn3)c2O1` (centres undefined), the cytotoxicity at 70.5 h was -3.38%.

On to `Cc1c(C(=O)N2CCC3(CCCN(CC4CC4)C3=O)C2)ccn1C` (centres undefined), for which the cytotoxicity at 70.5 h stood at 15.8%.

Turning to `Nc1nc(CNc2ncnc3c2CCN(Cc2ccoc2)CC3)cs1`, the cytotoxicity at 70.5 h is 29%.

On to `CC(C)Cc1nnc(SCC(=O)O)n1-c1ccc(F)cc1F`, for which the cytotoxicity at 70.5 h came out at 5.45%.

`CN(C)C(C(=O)NCC1(C)COC1)c1cccc(F)c1` (centres undefined): the cytotoxicity at 70.5 h was -3.06%.

For `CCCc1cncnc1N1CCC2(CCC(=O)N(CCOC)C2)CC1`, the cytotoxicity at 70.5 h was 13.2%.

As for `Cc1ccccc1C(CNc1ncnc2c1CCNCC2)N(C)C` (centres undefined), the cytotoxicity at 70.5 h amounted to 5.24%.

With `O=C(NC1CCCN(CCCc2ccccc2)C1)c1ccncc1` (centres undefined), the cytotoxicity at 70.5 h was -2.32%.

Turning to `CSc1ccccc1CN1C[C@@H]2CC[C@H](C1)N(CC1CC1)C2=O`, the cytotoxicity at 70.5 h is 26.6%.

For `CC(=O)N[C@@H]1Cc2ccccc2[C@H]1Nc1nnc(C2CC2)o1`, the cytotoxicity at 70.5 h was -7.5%.

Regarding `Cc1ccc(OCCN(C)C(=O)CCCN2CCCC2=O)c(C)c1`, the cytotoxicity at 70.5 h was -5.15%.

In the case of `CN(C)S(=O)(=O)NCc1cccnc1Oc1ccc(F)cc1F`, the cytotoxicity at 70.5 h was -3.42%.

`CN(C)C(=O)CN1CCc2onc(-c3ccccc3F)c2C1`: the cytotoxicity at 70.5 h came out at 48.8%.

On to `COCc1cc(CNC(=O)c2c(C)cc(C)[nH]c2=O)n[nH]1`, for which the cytotoxicity at 70.5 h was -1.97%.

Take `CC(CCc1ccccc1)NC(=O)CN1CCOCC1` (centres undefined): the cytotoxicity at 70.5 h was -3.3%.

`O=C(c1cn(CCN2CCCCC2)nn1)N1CCSCC1`: the cytotoxicity at 70.5 h is -1.47%.

For the molecule `CCOCc1nc2c(c(N3CC=CC3)n1)CCN(C1CCOCC1)CC2`, the cytotoxicity at 70.5 h stood at 0.826%.

In the case of `CCc1nc(N2CCN(c3ncccn3)CC2)c2cnn(C)c2n1`, the cytotoxicity at 70.5 h was -5.59%.

On to `Cc1nc(O)cc(C2CCCN(Cc3c(Cl)cncc3Cl)C2)n1` (centres undefined), for which the cytotoxicity at 70.5 h is -8.65%.

Consider `O=C(CCCn1nnc(-c2ccc(F)cc2)n1)N1CCOCC(CO)C1` (centres undefined), for which the cytotoxicity at 70.5 h worked out at 23.7%.

For `CC(Cn1cncn1)NCCN1CCc2ccccc21` (centres undefined), the cytotoxicity at 70.5 h was -5.52%.

With `O=C1C[C@H]2CC[C@@H](CN1)N2C(=O)CCc1ccsc1`, the cytotoxicity at 70.5 h is -9.38%.

Regarding `Cc1noc(C)c1CN1C[C@@H](C(=O)O)[C@H](C(C)C)C1`, the cytotoxicity at 70.5 h is -10%.

In the case of `Fc1ccc(C2CCCCN2Cc2cc(-c3ccccn3)no2)cc1` (centres undefined), the cytotoxicity at 70.5 h amounted to 17.8%.

For `CN(Cc1nc(C2CC2)no1)C(=O)c1cccc(CC2CCNCC2)c1`, the cytotoxicity at 70.5 h was -5.09%.

Regarding `CN(C)C(=O)NCc1cc2n(n1)CCCN(C[C@H]1[C@@H]3CNC[C@@H]31)C2`, the cytotoxicity at 70.5 h is -0.846%.

Consider `COC(=O)c1sccc1S(=O)(=O)N1CCc2c(ncnc2N(C)C)C1`, for which the cytotoxicity at 70.5 h was -1.11%.

In the case of `CC(C)=Cc1c(-c2ccccc2)ncn1CCS(C)(=O)=O`, the cytotoxicity at 70.5 h stood at 7.25%.

For the molecule `COc1ccc(O)c(C(=O)NCC2CCCN(C3CCOCC3)C2)c1` (centres undefined), the cytotoxicity at 70.5 h was -10.8%.

As to `Cn1ccnc1CN1CCC(c2nc3ccccc3n2C)CC1`, the cytotoxicity at 70.5 h came out at 28.7%.

For `CNCCCNc1nc(C2CCCC2)nc2c1cnn2C`, the cytotoxicity at 70.5 h was 2.51%.

As to `Cc1nnc(CN2C[C@H]3CC[C@@H]2CN(C2Cc4ccccc4C2)C3)o1`, the cytotoxicity at 70.5 h was found to be 4.16%.

As for `Cc1ccc(N2CCN(C(=O)CCC(F)(F)F)C(C)C2)cc1` (centres undefined), the cytotoxicity at 70.5 h was -18.6%.

Consider `Cc1nn(CCNC(C)Cn2ccnc2)c(C)c1Cl` (centres undefined), for which the cytotoxicity at 70.5 h is -1.29%.

With `CN1CCCN(S(=O)(=O)c2cccc(C(=O)N3CCCCCC3)c2)CC1`, the cytotoxicity at 70.5 h was -7.86%.

On to `O=C(c1coc(CN2CCN(c3ccccc3F)CC2)n1)N1CCCC1`, for which the cytotoxicity at 70.5 h came out at 5.68%.

As for `CN1CCN(Cc2nnc(C3CCN(C4CCCCC4)CC3)n2C)CC1`, the cytotoxicity at 70.5 h is -27.4%.

Take `CN(CC1=CCCN(CCc2ccccn2)C1)C(=O)c1ccco1`: the cytotoxicity at 70.5 h is -9.19%.

As for `CN(CCc1noc(C2CC2)n1)C(=O)C1(N2CCCC2)CCCC1`, the cytotoxicity at 70.5 h was -3.64%.

With `COC(=O)c1cccnc1N1CCC(Oc2cccc(F)c2)CC1`, the cytotoxicity at 70.5 h turned out to be 1.14%.

As to `Cc1nc(C2CCN(CC(=O)NC3CC3)CC2)cc(N2CCOCC2)n1`, the cytotoxicity at 70.5 h is -0.642%.

Consider `c1ncn(Cc2nnc(C3CCN(CC4CC4)CC3)n2C2CC2)n1`, for which the cytotoxicity at 70.5 h was -15.3%.

With `CN(Cc1cnc(C(C)(C)C)nc1)Cc1nc2ccc(F)cc2[nH]1`, the cytotoxicity at 70.5 h was -5.62%.

As to `COc1ccc(CN2C[C@@H]3CC[C@H](C2)N(Cc2snnc2C)C3)cc1`, the cytotoxicity at 70.5 h was found to be 49%.

Turning to `NCCN1CCC(c2nnc(Cn3ccnc3)n2C2CC2)CC1`, the cytotoxicity at 70.5 h was -3.91%.

Turning to `CCCc1cnc(C)nc1N1CCC2(CC1)CNC(=O)O2`, the cytotoxicity at 70.5 h turned out to be 10.5%.

`CC1(C)CNC(=O)c2nc(CCN3CCC(C(N)=O)CC3)[nH]c2C1`: the cytotoxicity at 70.5 h was -11.8%.

With `O=C(c1ccc[nH]1)N1CCN(CC2CCOc3ccccc3C2)CC1` (centres undefined), the cytotoxicity at 70.5 h is 16.4%.

As for `CN(Cc1ccc(F)cc1)CC1(O)CCCN(CC(C)(C)C)C1=O` (centres undefined), the cytotoxicity at 70.5 h was -6.42%.

For `CS(=O)(=O)NCc1cc2n(n1)CCCN(Cc1cccc(C#N)c1)C2`, the cytotoxicity at 70.5 h was -9.28%.

As for `Cc1cc(N2CCC(c3nnc(CN(C)C)n3C3CC3)CC2)ccn1`, the cytotoxicity at 70.5 h was 18.3%.

In the case of `CCOc1ncccc1C(=O)N1CCCC(c2nccn2CCOC)C1` (centres undefined), the cytotoxicity at 70.5 h is -9.63%.

Consider `CCCS(=O)(=O)c1ncc(CN2CCC(CO)CC2)n1CC1CCCO1` (centres undefined), for which the cytotoxicity at 70.5 h was -4.07%.

Regarding `N#Cc1ccccc1C(=O)N1C[C@H](CO)C[C@H](CN2CCCC2)C1`, the cytotoxicity at 70.5 h is -8.82%.

Take `CN(C)c1ccccc1C(=O)N1C[C@@H](CN2CCCCC2)[C@@H](CO)C1`: the cytotoxicity at 70.5 h is -3.58%.

On to `CN(C)C(=O)N1CCN(C(=O)C(c2ccccc2F)N(C)C)CC1` (centres undefined), for which the cytotoxicity at 70.5 h was -4.32%.

As to `COCCCn1c(CN2CCCC(O)C2)cnc1S(=O)(=O)C1CCCC1` (centres undefined), the cytotoxicity at 70.5 h was -5.61%.

Consider `COCc1nc(CNC2CCSCC2)no1`, for which the cytotoxicity at 70.5 h is -8.13%.

On to `CCn1ncnc1C(C)NC(=O)C1CCN(C(=O)COC)CC1` (centres undefined), for which the cytotoxicity at 70.5 h is -8.09%.

As to `COc1ccc(CN2CCC(O)CC2)c(OC)c1`, the cytotoxicity at 70.5 h was -6.19%.

`CCS(=O)(=O)c1ncc(CN(C)Cc2ccccn2)n1CCOC`: the cytotoxicity at 70.5 h is -5.34%.

`CCOCCn1nc(C)cc1C(=O)N1CCOCC(CO)C1` (centres undefined): the cytotoxicity at 70.5 h came out at 12%.

With `COc1ccccc1OC1CCN(Cc2cnc(N(C)C)nc2)CC1`, the cytotoxicity at 70.5 h was -7.45%.

With `CS(=O)(=O)N1CCC(Oc2ccc(C(=O)N3CCSCC3)cc2Cl)CC1`, the cytotoxicity at 70.5 h came to 0.994%.

As for `O=S(=O)(Cc1ccccc1)NCc1ccco1`, the cytotoxicity at 70.5 h was -5.52%.

On to `CCn1ccnc1CN1C[C@@H](CN2CCCC2)[C@@H](CO)C1`, for which the cytotoxicity at 70.5 h is -0.818%.

Take `CCc1nc(C)c([C@H]2CN(C)C[C@@H]2C(=O)NCCc2cnccn2)[nH]1`: the cytotoxicity at 70.5 h was -5.77%.

Consider `Cc1cc(N2CCCCCC2)n2nc(C)c(C)c2n1`, for which the cytotoxicity at 70.5 h is -4.52%.

On to `O=C(CCc1cccnc1)N(Cc1ccsc1)CC1CCCO1` (centres undefined), for which the cytotoxicity at 70.5 h is -6.73%.

As to `CC(C)NC(=O)[C@@H]1C[C@H](N)CN1C(=O)c1cc2ccccc2[nH]c1=O`, the cytotoxicity at 70.5 h is -8.06%.

Take `Cc1nonc1CC(=O)N1C[C@@H]2CC[C@H](C1)N(Cc1ccccc1)C2=O`: the cytotoxicity at 70.5 h is 8.97%.

For `c1cn(Cc2nnc(C3CCN(c4nccs4)CC3)n2C2CC2)cn1`, the cytotoxicity at 70.5 h is -4.16%.

Take `OC(CNCc1ccccc1C(F)(F)F)c1ccccc1` (centres undefined): the cytotoxicity at 70.5 h is -5.57%.
